As a reminder, the Ki is a measure of affinity in units of concentration, obtained from inhibition or displacement. Usually EC50 stands for the concentration that produces a half-maximal response.

Here are results for one compound from PMC7391726, “Fatty acid mimetic PBI-4547 restores metabolic homeostasis via GPR84 in mice with non-alcoholic fatty liver disease” (Scientific Reports, 2020).

Assay [1] concerns the target T1, PPARα (Homo sapiens, UniProt Q07869).
T1 construct: glutathione S-transferase (GST)-tagged human PPAR-LBD; purchased Fisher Scientific
T1 sequence (Q07869 239-466 limits assumed): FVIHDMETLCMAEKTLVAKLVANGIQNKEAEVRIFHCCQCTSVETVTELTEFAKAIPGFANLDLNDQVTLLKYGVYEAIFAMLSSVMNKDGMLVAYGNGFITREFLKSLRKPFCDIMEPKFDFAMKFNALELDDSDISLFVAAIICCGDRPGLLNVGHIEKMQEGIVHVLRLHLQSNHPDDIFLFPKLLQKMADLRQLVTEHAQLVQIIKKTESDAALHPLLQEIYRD
In words: LanthaScreen TR-FRET competitive binding assay, PPARα LBD. Particulars: Cheng-Prusoff; read-out: Ki inhibition constant, PPARα LBD. The source says:
(§1) The peroxisome proliferator-activated receptors (PPARs), PPARα, PPARδ, and PPARγ are ligand-dependent transcription factors regulated by FAs, including MCFAs, which control expression of several key metabolism-associated genes. We thus characterized the binding and transcriptional activity of PBI-4547 to these receptors. A LanthaScreen TR-FRET competitive binding assay was used to determine the binding affinity of PBI-4547 in comparison to the full control agonists GW7647 (PPARα), GW0742 (PPARδ), and rosiglitazone (PPARγ).
(§2) The LanthaScreen time-resolved fluorescence resonance energy transfer (TR-FRET) PPARα, PPARδ and PPARγ competitive binding assay (Fisher Scientific) was performed according to the manufacturer’s protocol. […] The FRET signal was measured using an Infinite M1000 microplate reader by excitation at 332 nm and emission at 520 nm for fluorescein and 490 nm for terbium. Competitive ligand binding to PPAR is detected by a test compound’s ability to displace the Fluormone pan-PPAR Green from the LBD, which results in a decrease of the 520 nm/490 nm TR-FRET ratio. The inhibition constant (Ki) of the competitor ligand was calculated by applying the Cheng-Prusoff equation.
On the technique in general: TR-FRET usually uses a lanthanide donor and a delayed reading to cut background.

The next assay has as its target T2, PPARγ (Homo sapiens, UniProt P37231).
T2 construct: glutathione S-transferase (GST)-tagged human PPAR-LBD; purchased Fisher Scientific
T2 sequence (P37231 238-503 limits assumed): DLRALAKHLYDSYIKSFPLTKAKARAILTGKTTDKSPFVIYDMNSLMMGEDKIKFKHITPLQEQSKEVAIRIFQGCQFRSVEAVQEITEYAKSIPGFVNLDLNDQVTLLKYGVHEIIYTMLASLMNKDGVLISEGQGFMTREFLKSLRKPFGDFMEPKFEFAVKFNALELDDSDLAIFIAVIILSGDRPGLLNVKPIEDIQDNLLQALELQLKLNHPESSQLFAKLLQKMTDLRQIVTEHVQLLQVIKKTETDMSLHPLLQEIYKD
The assay can be described thus: LanthaScreen TR-FRET competitive binding assay, PPARγ LBD. Particulars: Cheng-Prusoff; read-out: Ki inhibition constant, PPARγ LBD.
From the text: as §1, §2

Assay [2] deals with T3, PPARα (Homo sapiens, UniProt Q07869).
T3 construct: human PPARα (S167–Y468); expressed in transfected cells; host or cells: HEK293
T3 sequence (Q07869 167-468): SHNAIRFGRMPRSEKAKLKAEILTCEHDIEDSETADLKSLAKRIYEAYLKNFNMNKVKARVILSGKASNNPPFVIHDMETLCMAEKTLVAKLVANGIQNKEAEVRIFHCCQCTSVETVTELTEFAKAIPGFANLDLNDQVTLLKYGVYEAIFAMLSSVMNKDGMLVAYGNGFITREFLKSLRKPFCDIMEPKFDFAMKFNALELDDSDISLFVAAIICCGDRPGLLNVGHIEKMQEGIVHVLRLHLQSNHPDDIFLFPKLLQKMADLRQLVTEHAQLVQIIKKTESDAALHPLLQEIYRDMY
In words: Cell-based GAL4 transactivation assay in HEK293 cells, PPARα LBD. Conditions: HEK293, 24 h; read-out: EC50, PPARα transcriptional activity. The source says:
To determine the transcriptional activity of PBI-4547, a cell-based GAL4 transactivation assay in HEK293 cells transfected with either PPARα, PPARδ, or PPARγ LBD was used. […] However, PBI-4547 only partially activated PPARγ transcriptional activity, with a relative maximal efficacy of 38% of the control agonist rosiglitazone.
Generation of the Gαi2, Gαq, and GPR40/β-arrestin-2 BRET biosensors have been described previously. A plasmid encoding the human GPR120-L (long isoform) cDNA was obtained from R&D Systems. GPR120-S (short isoform) was generated by replacing the BglII-BsgI fragment from GPR120-L by a gBlock gene fragment (Integrated DNA Technologies, Coralville, IA) lacking the DNA sequence corresponding to the extra 16 amino acids found in the third intracellular loop of the long form. The GPR120-GFP10 construct was generated by inserting PCR-amplified GPR120-S (without its stop codon) in place of GPR40 in the GPR40-GFP10 plasmid. […]
HEK293 cells were co-transfected with pGL4.35[luc2P/9XGAL4UAS/Hygro] and GAL4-PPAR-Rluc plasmids, and after 24 h of incubation were treated with compounds for 24 h. Luciferase activity was determined with the Dual Glo luciferase assay (Promega). Firefly luminescence was normalized to the constitutively expressed Renilla luminescence, and results expressed as fold induction of vehicle control.

The subject of the next assay is CCl4 mouse. The assay can be described thus: Carbon tetrachloride (CCl4)-induced liver fibrosis. The assay is classed as in vivo. The source says: Since fibrosis contributes directly to the progression from NAFLD to NASH, we next evaluated the effect of PBI-4547 pro-fibrotic gene expression. […] Pro-inflammatory genes were not modulated by treatment with PBI-4547. […] As liver fibrosis was relatively mild in HFD-fed mice, we performed separate studies to evaluate the antifibrotic effect of PBI-4547, in rodent models of carbon tetrachloride (CCl4)- and bile duct ligation (BDL)-induced liver fibrosis.

For `CCCCCc1cc(CCCCC)cc(CC(=O)[O-])c1.[Na+]` [PBI-4547, 2-[3,5-dipentylphenyl]acetate sodium salt], the Ki stood at 489 nM on PPARα [1] and 88 nM at PPARγ. For the same compound, the concentration giving a half-maximal response (EC50) on PPARα [2] came out at 42 µM. Further, the liver collagen deposition result with CCl4 mouse was “significantly decreased”.
